# Data reported in patent US20260183225A1, “PHARMACEUTICAL COMPOSITION FOR TOPICAL ADMINISTRATION COMPRISING A VOLATILE ANAESTHETIC” (LABORATORIOS GEBRO PHARMA, S.A., priority 2022, published 2026).
# Tests used:
# [1] = system: sciatic nerve ligation or chronic constriction injury (CCI) model; assay: von Frey filament test (mechanical allodynia), CCI model, subcutaneous injection; type: in vivo, rat
# Procedure: (§1) Male Wistar rats with a body weight between 250 and 300 g were kept in standard laboratory conditions (12 h light/dark cycles, temperature 21° C.). Four groups were formed and treated once a day with a composition comprising an active ingredient: • Group 1 was administered 10% of LGP10-16. • Group 2 was administered 25% of LGP10-16. • Group 3 was administered 100% of LGP10-16. • A control group 4 was administered saline solution. Each group consisted of 15 rats.
# The sciatic nerve ligation or chronic constriction injury (CCI) model for as described by Bennett and Xie was used. The sciatic nerve ligation model generates a peripheral nerve injury that causes the appearance of mechanical and thermal hyperalgesia, mechanical allodynia and sometimes signs of spontaneous pain can be observed, by the spontaneous 5 elevation of the paw. All these symptoms appear one week after nerve ligation and can last more than two months. The added value of the model is that each animal can be its own control, since the contralateral paw, not being injured, reflects normal values. […]
# [2] = system: sciatic nerve ligation or chronic constriction injury (CCI) model; assay: rodent pincher test (mechanical hyperalgesia), CCI model, subcutaneous injection; type: in vivo, rat; details: s.c. once a day; 10%, 25% and 100% LGP10-16
# Procedure: as §1
# The sciatic nerve ligation or chronic constriction injury (CCI) model for as described by Bennett and Xie was used. The sciatic nerve ligation model generates a peripheral nerve injury that causes the appearance of mechanical and thermal hyperalgesia, mechanical allodynia and sometimes signs of spontaneous pain can be observed, by the spontaneous 5 elevation of the paw. All these symptoms appear one week after nerve ligation and can last more than two months. The added value of the model is that each animal can be its own control, since the contralateral paw, not being injured, reflects normal values.
# Mechanical hyperalgesia was tested in the rodent pincher test. The rodent pincher algometer allows calibrated forceps to induce quantifiable mechanical stimulation in the animal. The pressure is applied in the “inter-digital” region. […]
# Male Wistar rats = assay: healing and local tolerability after subcutaneous injection in CCI rats; type: in vivo, rat
# Procedure: as §1
# mouse vas deferens = mouse vas deferens preparation, inhibition of contractile activity
# Procedure: In a second step, the effect of different concentrations of LGP10-16 on preparations of mouse vas deferens and guinea-pig ileum LMMP was studied.
# After adding a concentration of the drug to the organ bath, it is left for 9 minutes to test its effect, after which the preparation is washed. At the end of the first concentration-response curve (left bars), it is left for 90 mins and the second curve is created (right bars).
# [3] = system: sciatic nerve ligation or chronic constriction injury (CCI) model; assay: conditioned place preference (CPP) test, spontaneous pain, CCI model; type: in vivo, rat; details: LGP10-16 25%; day 14 and day 21
# From the text: The conditioned place preference (CPP) test assesses emotional responses; it is based on the evaluation of an associated learning behaviour in response to a new aversive environment. The CPP apparatus (70×30×30 cm) is divided into 3 compartments: two test compartments of identical dimensions and a third one considered as a neutral zone, which is narrower. The two test compartments have different visual and tactile characteristics (colour and texture of the walls and floor), so that the animal can differentiate them well and can be isolated by movable doors, so that communication between the three compartments can be allowed or blocked. On the pre-conditioning day, the animal was allowed to roam freely in the three compartments for 30 min, and the time spent in each compartment was measured ([…] that spend more than 60% in one compartment were excluded).
# On conditioning days, animals were administered the drug and confined for 15 min in one of the test compartments (always in the same compartment) in order to associate the drug administration to that area. This conditioning procedure was repeated for each administration of the drug. […] The CPP value is expressed as the difference between the […]. […]
# guinea-pig ileum LMMP = guinea-pig ileum LMMP preparation, inhibition of contractile activity
# From the text: In a second step, the effect of different concentrations of LGP10-16 on preparations of mouse vas deferens and guinea-pig ileum LMMP was studied. […] In the case of this preparation, after washing, the curve has the same appearance, and the LGP10-16 activity is the same in both curves. To further investigate these differences, the battery of guinea-pig ileum experiments was repeated, this time without washing between the two curves, to see if the effect changed in any way. […] This is a clear synergic effect, as a result of the continued presence of LGP10-16 in the bath.
# A delta nerve fibres = assay: isolated nerve fibre model (electrophysiology of A delta fibres)
# Procedure: In a first step, an isolated nerve fibre model was used and the effect of a 25% dilution (nutrient solution) of LGP10-16 on the different electrophysiological variables of the A delta nerve fibres was evaluated. The stimulated fibres from the A delta type correspond to nociceptive sensory fibres. 250 μl of LGP10-16 and 750 μl of nutrient solution were used in this test.
# [4] = maximum concentration 25%, second curve
smiles,measurement,setting,value
"FCOC(C(F)(F)F)C(F)(F)F [LGP10-16, Sevoflurane]",difference with respect to the control (von Frey),"[1]; from the first run at day 7, all doses (10%, 25%, 100%)",statistically significant differences
same,antiallodynic effect (von Frey),"[1]; s.c. once a day, 10%, 25% and 100% LGP10-16",dose- and time-dependent antiallodynic effect
same,antihyperalgesic effect (rodent pincher),[2],dose and time-dependent
same,effect on healing,"Male Wistar rats; concentrations of 10% and 25%, s.c.",not negatively affected
same,local adverse findings,"Male Wistar rats; group 3, 100% LGP10-16, s.c.",skin irritation and blistering
same,side effects in animal models,Male Wistar rats; summary statement,no relevant side effects
same,recovery of contractile capacity after washing after the first curve,"mouse vas deferens; 25%, washed after first curve",around 75%
same,Emax,"mouse vas deferens; Mus musculus, 25%, washed after second curve, read-out: contractile activity after washing after the second curve, of maximum response",50%
same,persistence of the effect after washing,mouse vas deferens; after changing the nutrient solution,maintained even 90 minutes after washing the preparation
same,inhibition of the contractile response,"mouse vas deferens; concentrations from 1% to 25% added to the bath, 9 minutes",concentration-dependent inhibition
same,inhibition at the end of the first curve,mouse vas deferens; maximum concentration 25%,55%
same,inhibition at the end of the second curve,mouse vas deferens; [4],85%
same,time spent in the compartment associated with drug administration (CPP),[3],spent more time in the room associated with drug administration
same,effect when the preparation was not washed between the two curves,"guinea-pig ileum LMMP; 1% to 25%, without washing, more inhibitory at intermediate doses",somewhat greater
same,recovery of contractile capacity after washing after the first curve,"guinea-pig ileum LMMP; 25%, washed after first curve",100%
same,recovery of function after washing after the second curve,"guinea-pig ileum LMMP; 25%, washed after second curve",100%
same,inhibition of functional activity,guinea-pig ileum LMMP; concentration of 10% and 25%,complete (and reversible) inhibition
same,inhibition at the end of the first curve,"guinea-pig ileum LMMP; increasing concentrations 1% to 25%, maximum 25%",100%
same,inhibition at the end of the second curve,guinea-pig ileum LMMP; [4],100%
same,reversibility of the effect,A delta nerve fibres; 25% dilution,reversible
same,effect on nerve fibre firing capacity,"A delta nerve fibres; 25% dilution in nutrient solution, increasing pressure stimulus",inhibition of the nerve fibre firing capacity
same,duration of the effect after a single application,"A delta nerve fibres; 25% dilution, maintained after washing the fibre",up to 90 minutes
same,effect level reached with a 25% solution,A delta nerve fibres; 25% solution,maximum effect was reached
